Literature values, collected in paper PMC9298787 (The Prostate, 2021).
Values joined by “and” are separate entries in the source; they are usually repeats but may differ in a detail not shown here. Equal entries are not always repeated.

Details: single oral 160 mg enzalutamide, fasting, three matched healthy controls

- AUC0‐∞: 245.8 µg·h/mL and 224.8 µg·h/mL
- Cmax: 3800 ng/mL and 4600 ng/mL
- t1/2: 115.3 h and 108.3 h and 111.6 h
SMILES: CNC(=O)c1ccc(N2C(=S)N(c3ccc(C#N)c(C(F)(F)F)c3)C(=O)C2(C)C)cc1F [enzalutamide]
